Experiments:
[1] = laboratory experiments and clinical studies; cited from earlier work
From the text: (§1) Fishman et al. reported that in a large review of patients with culture-positive, persistent tympanostomy tube otorrhea, S. aureus accounted for 52% of the organisms cultured, of which 57% were MRSA.[20] Presently, the most commonly used antibiotic against MRSA is vancomycin. […] Although there is no emergence of VRSA in CSOM, new anti-MRSA peptides need to be studied for the prevention of VRSA or VISA. Mandal et al. reported that approximately 15% of MRSA ...

MRSA = test: Inhibition zone assay; format: cell-based, Methicillin-resistant Staphylococcus aureus; conditions: 37 °C overnight
Procedure: MRSA was grown overnight for 18 h at 37 °C in 10 mL of LB broth and then 10 μL of this culture was inoculated into 10 mL of fresh LB and incubated for an additional 3 h at 37 °C to obtain mid-logarithmic phase organisms. The bacterial suspension (2 × 10^5 CFU/mL in LB) was mixed with 0.7% agarose and poured into a 10 cm Petri dish. […] The diameters of the bacterial clearance zones surrounding the circle paper were measured for the quantitation of inhibitory activities.

guinea pigs = conditions: guinea pig, in vivo; cited from earlier work
From the text: as §1

[2] = paper disc on agarose plate, MRSA, zone size dose-dependent (Fig. 2)

CN[C@H](CC(C)C)C(=O)N[C@H]1C(=O)N[C@@H](CC(N)=O)C(=O)N[C@H]2C(=O)N[C@H]3C(=O)N[C@H](C(=O)N[C@H](C(=O)O)c4cc(O)cc(O)c4-c4cc3ccc4O)[C@H](O)c3ccc(c(Cl)c3)Oc3cc2cc(c3O[C@@H]2O[C@H](CO)[C@@H](O)[C@H](O)[C@H]2O[C@H]2C[C@](C)(N)[C@H](O)[C@H](C)O2)Oc2ccc(cc2Cl)[C@H]1O [vancomycin]
ototoxicity after vancomycin treatment [1]: did not demonstrate significant ototoxicity

KRIVQRIKKWLR-NH2 [KR-12-a2]
amount from which an inhibition zone against MRSA was produced (MRSA; 10 μL aliquots of serial dilution on ≈6 mm paper discs, MRSA 2 × 10^5 CFU/mL in LB with 0.7% agarose): 6.25 µg
amount giving the highest mean diameter of the inhibition zone (MRSA; [2]): 100 µg
amount giving the lowest mean diameter of the inhibition zone (MRSA; [2]): 6.25 µg

daptomycin
ototoxicity after topical application (guinea pigs): no ototoxicity

Source: PMC9449155 (Brazilian Journal of Otorhinolaryngology, 2017)
